The text below walks through data of EPA's ToxValDB 9.5 (doi:10.2903/j.efsa.2006.56r).

The structures appear in SMILES notation. “And” between values parts separate entries of the source, which are not always exact repeats. Equal values may be shown once.

For data set [1], the system named is Apis mellifera. As to conditions: acute; for LD50: mortality.
The subject of data set [2] is Colinus virginianus. As to conditions: for LC50: diet.
Data set [3] relates to Oryctolagus sp. As to conditions: developmental; development.
Data set [4] has as its system Plant. As to conditions: acute.
In data set [5] the test system is Pontoscolex corethrurus. The note with it: for LC50: acute, mortality.
Data set [6] relates to Rattus norvegicus. The note with it: for LD50: acute, mortality.
Data set [7] concerns Anas platyrhynchos. As to conditions: acute; oral; unspecified; mortality.
In data set [8] the test system is Anatidae. As to conditions: reproductive.
The subject of data set [9] is Tagia sp. The note with it: chronic/long-term.
Setting [10] is: chronic, duration: 2 years, oral, diet, M, organ weight.

`CCCCOCCOC(=O)COc1nc(Cl)c(Cl)cc1Cl` [Triclopyr butotyl]: the results for the LEC in data set [1] (dermal) and in data set [4] were over 100 µg/piece and 2200 µg/L, respectively. Besides, the LD50 was over 100 µg/piece in [1] (oral, unspecified); 735 mg/kg in data set [2] (acute, oral, mortality); 803 mg/kg in data set [6] (oral). Further, the LC50 was 1890 mg/kg-day in data set [2] (acute, oral, mortality) and over 521 mg/kg in [5]. Also, the no-observed-adverse-effect level (NOAEL) in data set [3] turned out to be 30 mg/kg-day; in [6] (chronic) it was 5 mg/kg-day; in data set [6] (setting [10]), 3 mg/kg-day. The molecule also came in with an NOEC in data set [5] (chronic/long-term) of 9.6 mg/kg.

Regarding `O=C(O)COc1nc(Cl)c(Cl)cc1Cl` [Triclopyr], the LEC (acute) is 117 mg/L and > 131 mg/L and 75.8 mg/L; the LEC (chronic) is 46.3 mg/L and 48.5 mg/L. The LD50 in data set [7] is 1700 mg/kg; in data set [1] (dermal), over 100 µg/piece; in data set [1] (oral, unspecified), over 100 µg/piece; in data set [6] (oral), 630 mg/kg. Also, the NOEC came out at 30 mg/kg-day in data set [8], 500 mg/kg-day in data set [2] (reproduction developmental) and 9.6 mg/kg in [9]. Also, the LC50 in [2] (acute, oral, mortality) was 1030 mg/kg-day; in data set [5] it was over 983 mg/kg. For the same molecule, the NOAEL in [3] was 30 mg/kg-day; in [6] (setting [10]) it was 3 mg/kg-day; in [6] (reproduction developmental, reproduction), 25 mg/kg-day; in data set [6] (subchronic, duration: 13 weeks, oral, diet, M/F, histopathology: nonneoplastic), 5 mg/kg-day.
